# Reference: patent US11839213B2, “Antimicrobial, disinfecting, and wound healing compositions and methods for producing and using the same” (Armis Biopharma, Inc., priority 2008, dated 2023)
# Legend:
# [1] = tested on: C. difficile; experiment: ASTM E2197-02 disk carrier test against C. difficile spores; assay type: cell-based; details: C. difficile spores with soil load on stainless steel disks, 10 minutes contact
# Experimental: Pyruvic peracid (PPA) and Peroxy α-ketobutyric acid (POKBA) were tested against C. difficile using the ASTM E2197-02 testing method and the results are shown on FIG. 3. […] The method of testing these molecules against C. difficile was designed to evaluate the ability of liquid chemical germicides to inactivate vegetative bacteria, viruses, fungi, mycobacteria and bacterial spores in the presence of a soil load on disk carriers that represent environmental surfaces and medical devices.
# This test method is a standard test promulgated by ASTM Committee E35 on Pesticides and Subcommittee E35.15 on Antimicrobial Agents. The stringency in the test is provided by the use of a soil load, the microtopography of the carrier surface and the small ratio of disinfectant to surface area (1:5) typical for many disinfectant applications. Thus the formulation under test is presented with a reasonable challenge while allowing for efficient recovery of the test organisms from the inoculated carriers with or without their exposure to the test formulation.
# The metal disks used in the basic test are also compatible with a wide variety of germicidal actives and most surfaces in consumer based product manufacturing and health care facilities. The design of the metal discs makes it possible to place onto each precisely measured volume of the test organism (28 μL) as well as the test formulation (125 μL). […]
# [2] = tested on: MRSA; experiment: Spray test, log reduction of MRSA; assay type: cell-based; details: derived from 10% pyruvate and 3% H2O2; no growth in the broth, complete elimination assumed
# Source text: A representative list of the organisms tested include, but are not limited to, Bacillus subtilis, Bacillus atrophaeus, Bacillus thuringiensis, Staphylococcus aureus, Salmonella cholerasuis, Pseudomonas aeruginosa, Aspergillus niger, and Trichophyton mentagrophytes. The following exemplifies one procedure derived from disinfectant test methods found in guidelines of the Association of Official Analytical Chemists (AOAC) to meet “log reduction criteria” established by the U.S. Environmental Protection Agency (EPA) and U.S. FDA for certain applications: (1) A tube of the sample-disinfectant is placed into a waterbath for temperature control and allowed to equilibrate; (2) Once the tube has reached temperature, it is inoculated to achieve a concentration of approximately 10^6 CFU/mL; (3) At selected time points (generally five points are used including zero) aliquots are removed and placed into a neutralizer blank; (4) Dilutions of the neutralizer are made and selected dilutions plated onto agar; (5) Colonies are enumerated and log reductions are calculated.
# In order to obtain observable significant reductions (on the order of 106) of surface bacteria, a high number of viable CFU/in^2 must be available for treatment on the surface to be disinfected. […]
# The effectiveness of treatments was evaluated by enumeration of the surviving bacteria on the slide. […]
Compound,"activity against C. difficile (comparison, FIG. 3) [1]",log reduction of the MRSA control [2]
"CCC(=O)C(=O)OO [POKBA, Peroxy-alpha-Ketobutyric Acid]",significantly more active compared to PPA,–
CC(=O)C(=O)OO [peroxy pyruvic acid],–,approximately 6 logs
